According to a melting point compilation (Tetko et al.):

Question: With O=[N+]([O-])C=Cc1ccccc1C(F)(F)F as the compound, how does the melting point read?
Answer: The melting point was 60 to 62 °C.

Question: Which melting point does the source give for CC(C)(C)OC(=O)Nc1ccc(C(=O)O)cc1 here?
Answer: The melting point was 179 to 181 °C.

Question: Which melting point does the source give for O=C1c2ccccc2C(=O)N1CC1CNCCO1 (configuration not stated) here?
Answer: The melting point was 138 to 143 °C.

Question: With N#CCC(=O)NN as the compound, how does the melting point read?
Answer: Its melting point is 114 °C.

Question: For COc1ccc(N/N=C(/C#N)c2nc(-c3ccc(C)cc3)cs2)cc1, which melting point is on record?
Answer: The melting point was 145 °C.

Question: Which melting point does the source give for Clc1cncc(Cl)c1N1CCNCC1 here?
Answer: The melting point was 77 to 80 °C.

Question: For c1ccc(Nc2nc3ccccc3[nH]2)nc1, which melting point is on record?
Answer: Its melting point is 257 to 259 °C.

Question: Which melting point does the source give for O=C=Nc1ccc(-c2ccco2)cc1 here?
Answer: Its melting point is 66 °C.

Question: For CCCC(N)P(=O)(O)O (configuration not stated), which melting point is on record?
Answer: The melting point was 276 to 281 °C.

Question: With Cc1ccc(C)[nH]1 as the compound, how does the melting point read?
Answer: The melting point was 7.7 °C.

Question: Which melting point does the source give for CCc1cc(C)cc(O)c1 here?
Answer: Its melting point is 51.6 °C.

Question: With CCOC(=O)Cc1ccccc1Br as the compound, how does the melting point read?
Answer: The melting point was 37 °C.

Question: Which melting point does the source give for ICCCCCCI here?
Answer: Its melting point is 9.5 °C.

Question: With CC(C)(C)c1cc2c(O)c(c1)Cc1cc(C(C)(C)C)cc(c1O)Cc1cc(C(C)(C)C)cc(c1O)Cc1cc(C(C)(C)C)cc(c1O)C2 as the compound, how does the melting point read?
Answer: Its melting point is 300 °C.

Question: With CC(C=CC=C(C)C=CC1=C(C)C=CCC1(C)C)=CC=O as the compound, how does the melting point read?
Answer: Its melting point is 77.5 °C.

Question: With Nc1snnc1-c1ccccc1 as the compound, how does the melting point read?
Answer: The melting point was 144 to 147 °C.

Question: For COc1ccc2[nH]cnc2c1, which melting point is on record?
Answer: Its melting point is 122 °C.

Question: Which melting point does the source give for O=c1n(-c2ccccc2)c(=O)n2n1C1OC3CCC1C32 (configuration not stated) here?
Answer: Its melting point is 144 °C.

Question: For O=C(O)C(=O)Cc1c[nH]c2ccccc12, which melting point is on record?
Answer: The melting point was 215 °C.

Question: With Cc1ccc2ccc(C)cc2c1 as the compound, how does the melting point read?
Answer: Its melting point is 97 °C.

Question: With Nn1c(S(=O)(=O)O)nc2ccccc21 as the compound, how does the melting point read?
Answer: Its melting point is 252 to 253 °C.

Question: With CC(=O)N1CCC[C@H]1C(=O)O as the compound, how does the melting point read?
Answer: The melting point was 118 °C.

Question: For NC(=O)c1cccc(F)c1F, which melting point is on record?
Answer: The melting point was 116 °C.

Question: With O=C(c1ccc2ccccc2c1)C(Br)c1ccccc1 (configuration not stated) as the compound, how does the melting point read?
Answer: The melting point was 101 to 108 °C.

Question: Which melting point does the source give for Nc1ccc2cc(N)ccc2c1 here?
Answer: The melting point was 213 °C.

Question: With N#CCc1nc(-c2ccc3c(c2)OCCO3)cs1 as the compound, how does the melting point read?
Answer: The melting point was 116 to 118 °C.

Question: For Nc1ccc(-c2ccc(-c3ccc(N)cc3)cc2)cc1, which melting point is on record?
Answer: Its melting point is 247 °C.

Question: For O=C(O)c1ccc(N2C(=O)C3ON=C(C(=O)c4cccs4)C3C2=O)cc1 (configuration not stated), which melting point is on record?
Answer: The melting point was 208 °C.

Question: Which melting point does the source give for OC(c1ccc(Cl)cc1)(c1ccc(Cl)cc1)c1ccc(Cl)cc1 here?
Answer: Its melting point is 95.5 °C.

Question: For COc1cc(CCl)c(OC)cc1CCl, which melting point is on record?
Answer: The melting point was 164 to 165 °C.

Question: With c1nnn[nH]1 as the compound, how does the melting point read?
Answer: The melting point was 157 °C.

Question: Which melting point does the source give for CC(=O)N1CCc2cc(Br)ccc21 here?
Answer: The melting point was 124 to 127 °C.

Question: For O=C(O)[C@@H]1Cc2ccc(O)cc2CN1, which melting point is on record?
Answer: The melting point was 273 to 275 °C.

Question: For CC(=O)C1=Cc2ccccc2C1, which melting point is on record?
Answer: The melting point was 122 °C.

Question: For Nc1c([N+](=O)[O-])cccc1[N+](=O)[O-], which melting point is on record?
Answer: The melting point was 142 °C.

Question: Which melting point does the source give for CC(C(=O)Nc1ccc(F)c(F)c1F)(C(F)(F)F)C(F)(F)F here?
Answer: Its melting point is 44 °C.

Question: With Cc1ccc(C(C)(C)C)cc1S as the compound, how does the melting point read?
Answer: The melting point was -10 °C.

Question: Which melting point does the source give for CCCCCCCCCCN(CCCCCCCCCC)CCCCCCCCCC here?
Answer: Its melting point is -5 to -3 °C.

Question: For Cc1nc2ccccc2n1CC(=O)O, which melting point is on record?
Answer: Its melting point is 260 to 262 °C.

Question: With O=C(O)C(F)(F)C(F)(F)C(F)(F)C(F)(F)C(F)(F)C(F)(F)F as the compound, how does the melting point read?
Answer: The melting point was 31 to 36 °C.

Question: For CCOC(=O)c1c(-c2ccc(Br)cc2)csc1N, which melting point is on record?
Answer: The melting point was 120 to 122 °C.

Question: For COc1cc(C2OCC3C(c4ccc(OC(C)=O)c(OC)c4)OCC23)ccc1OC(C)=O (configuration not stated), which melting point is on record?
Answer: The melting point was 166 °C.

Question: Which melting point does the source give for Nc1ccc(Sc2ccc([N+](=O)[O-])cc2)cc1 here?
Answer: The melting point was 144 °C.

Question: For CCCCCc1ccc(S(=O)(=O)Cl)cc1, which melting point is on record?
Answer: The melting point was 42 to 44 °C.

Question: With COc1ccc2nonc2c1 as the compound, how does the melting point read?
Answer: The melting point was 99 to 102 °C.

Question: With COc1cc(O)c2c(c1)OC(c1ccc(O)cc1)CC2=O (configuration not stated) as the compound, how does the melting point read?
Answer: The melting point was 152 °C.

Question: For O=C(c1cc2ccccc2o1)c1cc2ccccc2o1, which melting point is on record?
Answer: The melting point was 174 to 175 °C.

Question: For O=[N+]([O-])c1cccc(N=C=S)c1, which melting point is on record?
Answer: Its melting point is 58 to 60 °C.

Question: Which melting point does the source give for COc1cc(CC2C(=O)NC(=N)N2C)ccc1O (configuration not stated) here?
Answer: Its melting point is 231 to 233 °C.

Question: With CC(C)N1CSc2nnc(-c3ccc([N+](=O)[O-])cc3)n2C1 as the compound, how does the melting point read?
Answer: The melting point was 260 °C.

Question: With CCOc1ccc(C=CC(=O)O)cc1 as the compound, how does the melting point read?
Answer: The melting point was 195 to 197 °C.

Question: For COC(=O)c1scc(Br)c1OC, which melting point is on record?
Answer: Its melting point is 73 to 74 °C.
